The values below come from patent publication US11219614B2, “Combination cancer therapy with pentaaza macrocyclic ring complex and ascorbate compound” (Galera Labs, LLC, priority 2016, dated 2022).

In series [1] the test system is head and neck squamous cell carcinoma cells (SQ20B). Description: clonogenic cell survival assay, SQ20B. It counts as cell-based, Human. The procedure: FIG. 5 is a plot showing the surviving fraction of SQ20B cells for increasing amounts of ascorbate, as determined by a clonogenic cell survival assay used to determine the effects of the compound alone and in combination with a pentaaza macrocyclic ring complex (GC4419). Human head and neck squamous cell carcinoma cells (SQ20B) were exponentially grown in culture for 48 hours. The cells were then treated with 5-20 μM GC4419 for 24 hours, followed by treatment with 5-20 pmol/cell ascorbate for 1 hour. The cells were then trypsinized, counted, replated at varying lower densities and incubated. Plates were stained and counted for clonogenic survival assays.
FIG. 7 is a graph showing the surviving fraction of SQ20B cells treated with ascorbate and combinations including ascorbate. The effects of ascorbate in combination with a pentaaza macrocyclic ring complex (GC4419) was tested in a clonogenic cell survival assay to determine the effects of the combination alone and when paired with ionizing radiation. Human head and neck squamous cell carcinoma cells (SQ20B) were plated and grown in culture for 48 hours. The cells were then treated with 5 μM GC4419 for 24 hours and 10 pmol/cell ascorbate (AA) for 1 hour, either alone, in combination (GC+AA), and/or paired with a dose of ionizing radiation (2 Gy). After the ionizing radiation dose, the cells were trypsinized, counted, replated at varying lower densities and incubated. Plates were stained and counted for clonogenic survival assays.
FIG. 8 is a graph showing the surviving fraction of SQ20B cells treated with ascorbate and combinations including ascorbate. The effects of ascorbate in combination with a pentaaza macrocyclic ring complex (GC4419) was tested in a clonogenic cell survival assay to determine the effects of the combination alone and when paired with the chemotherapeutic agent cisplatin. Human head and neck squamous cell carcinoma cells (SQ20B) were plated and grown in culture for 48 hours. The cells were then treated with cisplatin for 6 hours, 10 μM GC4419 for 3 hours, and 10 pmol/cell ascorbate (AA) for 1 hour. The cells were then trypsinized, counted, replated at varying lower densities and incubated. Plates were stained and counted for clonogenic survival assays.
The effect of ascorbate was tested in a clonogenic cell survival assay to determine the effects of the compound alone and in combination with a pentaaza macrocyclic ring complex (GC4419). Human head and neck squamous cell carcinoma cells (SQ20B) were exponentially grown in culture for 48 hours. The cells were then treated with 5-20 μM GC4419 for 24 hours, followed by treatment with 5-20 pmol/cell ascorbate for 1 hour. The cells were then trypsinized, counted, replated at varying lower densities and incubated. Plates were stained and counted for clonogenic survival assays.
The effects of ascorbate in combination with a pentaaza macrocyclic ring complex (GC4419) was tested in a clonogenic cell survival assay to determine the effects of the combination alone and when paired with ionizing radiation. Human head and neck squamous cell carcinoma cells (SQ20B) were plated and grown in culture for 48 hours. […] After the ionizing radiation dose, the cells were trypsinized, counted, replated at varying lower densities and incubated. Plates were stained and counted for clonogenic survival assays. […]

Series [2] deals with VEGFr inhibitor-induced pulmonary disease. Conditions: rat model; cited from earlier work.
Series [3] has as its system oral mucositis in head-and-neck cancer patients. The following applies: head-and-neck cancer patients undergoing chemoradiation therapy; cited from earlier work.

Consider `[Cl][Mn][Cl].c1cc2nc(c1)CN[C@H]1CCCC[C@@H]1NCCN[C@H]1CCCC[C@@H]1NC2` [GC4419], for which, in series [1] (5 μM GC4419 24 h + 10 pmol/cell ascorbate 1 h (GC+AA), FIG. 7), the “synergistic activity of the combination” value is reported as “more than merely an additive effect”. The “cell killing (clonogenic survival)” value in series [1] (5 μM GC4419 24 h + 10 pmol/cell ascorbate 1 h (GC+AA), compared to control and to each alone, FIG. 7) is given as “significant enhancements in cell killing”; in series [1] (cisplatin 6 h + 10 μM GC4419 3 h + 10 pmol/cell ascorbate 1 h, compared to control and cisplatin, GC4419 or ascorbate monotherapies, FIG. 8) it was “significant enhancements in cell killing”. Further, the “cytotoxicity (clonogenic survival)” value in series [1] (5-20 pmol/cell ascorbate 1 h in combination with 5, 10 or 20 μM GC4419 24 h, FIG. 5) was “increases the cytotoxicity of GC4419 or ascorbate”. The “sensitization to ionizing radiation” value in series [1] (GC+AA+IR (2 Gy) compared to IR 2Gy alone, FIG. 7) is listed as “sensitized the cancer cells to radiation”. Also, the pulmonary disease entry in series [2] is reported as “attenuate VEGFr inhibitor-induced pulmonary disease”. For the same compound, the oral mucositis result in series [3] is listed as “reduce oral mucositis”.
